Among the data in US9265749B2, “Methods for the treatment of systemic disorders treatable with mast cell stabilizers, including mast cell related disorders” (Patara Pharma, LLC, priority 2014, dated 2016) are AUC values, retold here.

The data set in a line: Single-dose, dose escalation study Part 1: pharmacokinetics of plasma/urine cromolyn sodium (DSCG). Format: in vivo. The note with it: human, plasma, inhaled, 40 mg.

Description: This was a Phase 1, randomized, open-label, single-centre, dose-ranging, cross-over study conducted in two parts in total of 18 subjects. Part 1 was conducted in total of 12 healthy adult subjects of 18-45 years of age. Part 2 was conducted in a total of 5 adult patients of 18-45 years of age with systemic mastocytosis. Parts 1 and 2 were conducted in parallel.
40 mg PA-101 (4% DSCG, 40 mg/1 mL), oral inhalation via eFlow 30L. • 2. 80 mg PA-101 (4% DSCG, 80 mg/2 mL), oral inhalation via eFlow 30L. • 3. 40 mg PA-101 (4% DSCG, 40 mg/1 mL), oral inhalation via eFlow 40L. • 4. […] 200 mg oral sodium cromoglycate solution (commercially available product), oral administration. […] 40 mg PA-101 (4% DSCG 40 mg/1 mL), oral inhalation via eFlow 30L • 2. 200 mg oral sodium cromoglycate solution (commercially available product), oral administration. […]
Urine DSCG levels were measured for total DSCG excretion in the urine, and the bioavailability of the DSCG was calculated from the measured levels.
Pharmacokinetic parameters and plasma concentrations are listed and summarized. […] Analysis of variance (ANOVA) including terms for subject and treatment are used to calculate point estimates, and confidence intervals (CI) for treatment differences with respect to PK parameters (90% CI) are calculated.

A word on the AUC: it is concentration integrated over time. The low end stands for less exposure, the high end for more exposure. Consider `O=C(O)c1cc(=O)c2c(OCC(O)COc3cccc4oc(C(=O)O)cc(=O)c34)cccc2o1` [cromolyn sodium], for which the AUC was 338 ng·h/mL (40 mg dose using the 30L device (text repeat of Table 2, PA-101)) and 212 ng·h/mL (40 mg dose using the 40L device (text repeat of Table 2, PA-101)).
